{"source": "patent US20160303050A1", "about": "“FORMULATIONS CONTAINING DIACEREIN AND METHODS OF LOWERING BLOOD LEVELS OF URIC ACID USING THE SAME” (TWi Biotechnology, Inc., priority 2015, published 2016)", "origin": "cited, not measured here", "settings": "single oral administration of 50 mg, healthy volunteers"}
{"smiles": "CC(=O)Oc1cccc2c1C(=O)c1c(OC(C)=O)cc(C(=O)O)cc1C2=O", "note": "[diacerein, 4,5-bis (acetyloxy) 9,10-dihydro-4,5-dihydroxy-9,10-dioxo-2-anthracenecarboxylic acid]", "values": [{"measurement": "fasting Tmax", "setting": "fasting", "result": 2.4, "unit": "h"}, {"measurement": "Tmax with a meal", "setting": "with a meal", "result": 5.2, "unit": "h"}]}
